# Target: T1, EBP (Homo sapiens, UniProt Q15125)
# T1 construct: HEK293T cells were utilized as the source of EBP enzyme; endogenous in cells; host or cells: HEK293T
# Test: EBP Functional Assay (EBP immunoaffinity LC-MS assay)
# Assay type: biochemical
# Settings: EBP enzyme from HEK293T cells; 30 min with inhibitor, then zymosterol-d5, 37° C., 4 h; percent conversion to dehydrolathosterol-d5 by LC-APCI MRM MS
# Procedure: The EBP immunoaffinity (IA) LC-MS assay measures the potency of small molecule inhibitors of EBP by quantifying their concentration-dependent changes in the enzyme's substrate and product using liquid chromatography atmospheric pressure chemical ionization multiple reaction monitoring mass spectrometry (LC-APCI MRM MS). HEK293T cells were utilized as the source of EBP enzyme. The enzyme was incubated with the small molecule inhibitors at variable concentrations for 30 min. Deuterated form of EBP substrate, zymosterol-d5 (Avanti Polar Lipids, Cat #700068P-1 mg), was then added and the plate was incubated at 37° C. for 4 h. Finally, the sterol isomers were extracted and injected to LC-APCI MRM MS. MRM transition used for the quantification for both zymosterol and […] (substrate and product of EBP enzymatic reaction, respectively) is 372.3-203.2, CE 30 and DP 80 in positive ion mode. Percent conversion of the zymosterol-d5 to dehydrolathosterol-d5 was used to derive IC50 curves. Tasin-1 (1′-[(4-Methoxyphenyl)sulfonyl]-4-methyl-1,4′-bipiperidine, CAS 792927-06-1) was used as the reference small molecule inhibitor.
# Percent conversion versus the compound concentration data were fit to the following 4-parameter logistic model to generate IC50 curves: […]
# T1 sequence (Q15125 whole entry): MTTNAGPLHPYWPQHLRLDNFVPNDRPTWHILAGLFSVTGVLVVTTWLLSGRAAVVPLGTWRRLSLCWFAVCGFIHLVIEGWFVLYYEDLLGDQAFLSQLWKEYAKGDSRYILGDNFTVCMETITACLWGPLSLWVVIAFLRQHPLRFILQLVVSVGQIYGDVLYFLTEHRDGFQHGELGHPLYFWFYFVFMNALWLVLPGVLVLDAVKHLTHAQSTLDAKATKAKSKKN
row,Compound,IC50 [µM]
1,"Cc1nc(C(F)(F)F)ccc1S(=O)(=O)N1CC2(CN(CC3(F)CCOCC3)C2)C1 [Example 188, 2-((4-fluorotetrahydro-2H-pyran-4-yl)methyl)-6-((2-methyl-6-(trifluoromethyl)pyridin-3-yl)sulfonyl)-2,6-diazaspiro[3.3]heptane]",< 0.1
2,Cc1nc(C(F)(F)F)ccc1S(=O)(=O)N1CC2(CN(CCC3CC3)C2)C1 [Example 184],< 0.1
3,"COc1ncc(C)cc1S(=O)(=O)N1CCOC2(CCN(C3CCOCC3)C2)C1 (stereo not shown) [Example 16, 9-((2-Methoxy-5-methylpyridin-3-yl)sulfonyl)-2-(tetrahydro-2H-pyran-4-yl)-6-oxa-2,9-diazaspiro[4.5]decane]",0.25 to 4
4,"O=S(=O)(c1cc(F)cc(F)c1)N1CCOC2(CCN(C3CC4(COC4)C3)C2)C1 (stereo not shown) [Example 28, 9-((3,5-Difluorophenyl)sulfonyl)-2-(2-oxaspiro[3.3]heptan-6-yl)-6-oxa-2,9-diazaspiro[4.5]decane]",0.1 to 0.25
5,"O=S(=O)(c1cc(C(F)F)nn1C1CC1)N1CC2(CN(C3CCOCC3)C2)C1 [Example 120, 2-((1-cyclopropyl-3-(difluoromethyl)-1H-pyrazol-5-yl)sulfonyl)-6-(tetrahydro-2H-pyran-4-yl)-2,6-diazaspiro[3.3]heptane]",0.1 to 0.25
6,"Cc1nc(C(F)F)ccc1S(=O)(=O)N1CC2(CN(C3CCOCC3)C2)C1 [Example 90, 2-((6-(difluoromethyl)-2-methylpyridin-3-yl)sulfonyl)-6-(tetrahydro-2H-pyran-4-yl)-2,6-diazaspiro[3.3]heptane]",0.1 to 0.25
7,COCCOCCCN1CC2(C1)CN(S(=O)(=O)c1ccc(C(F)(F)F)nc1C)C2 [Example 172],0.25 to 4
8,O=S(=O)(c1ccc(OC(F)F)cc1)N1CCC2(CCN(C3CCOCC3)C2)CC1 [Example 39],< 0.1
9,Cc1nc(C(C)(F)F)ccc1S(=O)(=O)N1CC2(CN(CC3CCOCC3)C2)C1 [Example 81],< 0.1
10,"Cn1nc(C(F)(F)F)cc1S(=O)(=O)N1CC2(CN(CC3CCOC(C)(C)C3)C2)C1 (single isomer, unassigned) [Example 200]",0.1 to 0.25
11,"COc1ccc(S(=O)(=O)N2CC3(CN(C4CCOCC4)C3)C2)c(Cl)n1 [Example 98, 2-((2-chloro-6-methoxypyridin-3-yl)sulfonyl)-6-(tetrahydro-2H-pyran-4-yl)-2,6-diazaspiro[3.3]heptane]",< 0.1
12,Cc1nc(C(F)(F)F)ccc1S(=O)(=O)N1CC2(CN(C3CCOCC3(C)C)C2)C1 (stereo not shown) [Example 142],< 0.1
13,"CCc1cc(C(F)(F)F)ncc1S(=O)(=O)N1CC2(CN(C3CCC(C)(O)CC3)C2)C1 (single isomer, unassigned) [Example 127, 4-(6-((4-ethyl-6-(trifluoromethyl)pyridin-3-yl)sulfonyl)-2,6-diazaspiro[3.3]heptan-2-yl)-1-methylcyclohexan-1-ol]",< 0.1
14,"O=S(=O)(c1ccc(OC(F)F)cc1)N1CCO[C@]2(CCN(C3CCOCC3)C2)C1 (single isomer, unassigned) [Example 3]",0.1 to 0.25
15,"CC1(C)CC(N2CCC3(CC2)CN(S(=O)(=O)c2ccc(OC(F)F)cc2)CCO3)CCO1 (stereo not shown) [Example 21, 4-((4-(Difluoromethoxy)phenyl)sulfonyl)-9-(2,2-dimethyltetrahydro-2H-pyran-4-yl)-1-oxa-4,9-diazaspiro[5.5]undecane]",0.25 to 4
16,Cc1nc(C(F)(F)F)ccc1S(=O)(=O)N1CC2(CN(CC3(C)COC3)C2)C1 [Example 141],< 0.1
17,Cc1cc(C(F)(F)F)ncc1S(=O)(=O)N1CCC2(CCN(C3CCOCC3)C2)CC1 [Example 38],< 0.1
18,"CC(C1CCOCC1)N1CC2(C1)CN(S(=O)(=O)c1cc(C(F)(F)F)nn1C)C2 (racemic) [Example 212, rac-2-((1-methyl-3-(trifluoromethyl)-1H-pyrazol-5-yl)sulfonyl)-6-(1-(tetrahydro-2H-pyran-4-yl)ethyl)-2,6-diazaspiro[3.3]heptane]",< 0.1
19,"O=S(=O)(c1ccc(C(F)F)nc1C1CC1)N1CC2(CN(C3CC4(COC4)C3)C2)C1 [Example 119, 2-((2-cyclopropyl-6-(difluoromethyl)pyridin-3-yl)sulfonyl)-6-(2-oxaspiro[3.3]heptan-6-yl)-2,6-diazaspiro[3.3]heptane]",0.1 to 0.25

row,Compound,IC50 [µM]
1,"O=S(=O)(c1c(F)cc(OC(F)F)cc1F)N1CC2(CN(CC3CCOCC3)C2)C1 [Example 225, 2-((4-(difluoromethoxy)-2,6-difluorophenyl)sulfonyl)-6-((tetrahydro-2H-pyran-4-yl)methyl)-2,6-diazaspiro[3.3]heptane]",0.25 to 4
2,"4-((6-((2-methyl-6-(trifluoromethyl)pyridin-3-yl)sulfonyl)-2,6-diazaspiro[3.3]heptan-2-yl)methyl)tetrahydro-2H-pyran-4-ol [Example 75]",0.25 to 4
3,O=S(=O)(c1ccc(C(F)(F)F)nc1C(F)(F)F)N1CC2(CN(CC3COC3)C2)C1 [Example 112],0.25 to 4
4,"COc1ncc(Cl)cc1S(=O)(=O)N1CC2(CN(C3CCOCC3)C2)C1 [Example 99, 2-((5-chloro-2-methoxypyridin-3-yl)sulfonyl)-6-(tetrahydro-2H-pyran-4-yl)-2,6-diazaspiro[3.3]heptane]",< 0.1
5,"CC(C)c1cc(S(=O)(=O)N2CC3(CN(C4CCOCC4)C3)C2)n(C)n1 [Example 189, 2-((3-isopropyl-1-methyl-1H-pyrazol-5-yl)sulfonyl)-6-(tetrahydro-2H-pyran-4-yl)-2,6-diazaspiro[3.3]heptane]",< 0.1
6,"Cc1nc(C(F)(F)F)ccc1S(=O)(=O)N1CC2(CN(CC3COCCO3)C2)C1 (racemic) [Example 216, rac-2-((1,4-dioxan-2-yl)methyl)-6-((2-methyl-6-(trifluoromethyl)pyridin-3-yl)sulfonyl)-2,6-diazaspiro[3.3]heptane]",0.25 to 4
7,"CCc1nc(C(F)F)ccc1S(=O)(=O)N1CC2(CN(C3CCC(C)(O)CC3)C2)C1 (stereo not shown) [Example 208, (1s,4s)-4-(6-((6-(difluoromethyl)-2-ethylpyridin-3-yl)sulfonyl)-2,6-diazaspiro[3.3]heptan-2-yl)-1-methylcyclohexan-1-ol]",0.1 to 0.25
8,"Cn1nc(C(F)(F)F)cc1S(=O)(=O)N1CC2(CN(CC3CCOC3)C2)C1 (racemic) [Example 197, rac-2-((1-Methyl-3-(trifluoromethyl)-1H-pyrazol-5-yl)sulfonyl)-6-((tetrahydrofuran-3-yl)methyl)-2,6-diazaspiro[3.3]heptane]",< 0.1
9,"O=S(=O)(c1ccc(Cl)nc1C(F)(F)F)N1CC2(CN(C3CCOCC3)C2)C1 [Example 213, 2-((6-chloro-2-(trifluoromethyl)pyridin-3-yl)sulfonyl)-6-(tetrahydro-2H-pyran-4-yl)-2,6-diazaspiro[3.3]heptane]",0.1 to 0.25
10,"Cc1ccc(S(=O)(=O)N2CC3(C[C@H]4CC[C@@H](C3)N4CC(C)(C)O)C2)c(C)c1 [Example 62, 1-((1′R,5′S)-1-((2,4-dimethylphenyl)sulfonyl)-8′-azaspiro[azetidine-3,3′-bicyclo[3.2.1]octan]-8′-yl)-2-methylpropan-2-ol]",< 0.1
11,"O=S(=O)(c1ccc(OC(F)(F)F)cc1F)N1CC2(CN(C3CCOCC3)C2)C1 [Example 214, 2-((2-fluoro-4-(trifluoromethoxy)phenyl)sulfonyl)-6-(tetrahydro-2H-pyran-4-yl)-2,6-diazaspiro[3.3]heptane]",0.25 to 4
12,"Cc1cc(C(F)(F)F)cnc1S(=O)(=O)N1CC2(CN(CC3CCOCC3)C2)C1 [Example 224, 2-((3-methyl-5-(trifluoromethyl)pyridin-2-yl)sulfonyl)-6-((tetrahydro-2H-pyran-4-yl)methyl)-2,6-diazaspiro[3.3]heptane]",0.25 to 4
13,"O=S(=O)(c1cc(F)cc(F)c1)N1CCO[C@@]2(CCN(C3CCOCC3)C2)C1 (single isomer, unassigned) [Example 15]",0.1 to 0.25
14,"COc1cc(C)c(S(=O)(=O)N2CC3(CN(C4CCOCC4)C3)C2)cn1 [Example 168, 2-((6-methoxy-4-methylpyridin-3-yl)sulfonyl)-6-(tetrahydro-2H-pyran-4-yl)-2,6-diazaspiro[3.3]heptane]",0.25 to 4
15,COCCCCCN1CC2(C1)CN(S(=O)(=O)c1ccc(C(F)(F)F)nc1C)C2 [Example 179],0.1 to 0.25
16,"O=S(=O)(c1cccnc1C(F)(F)F)N1CC2(CN(CC3CCOCC3)C2)C1 [Example 201, 2-((tetrahydro-2H-pyran-4-yl)methyl)-6-((2-(trifluoromethyl)pyridin-3-yl)sulfonyl)-2,6-diazaspiro[3.3]heptane]",0.25 to 4
17,"O=S(=O)(c1ccc(OC(F)F)cc1)N1CCOC2(CCN(CC3COC3)C2)C1 (stereo not shown) [Example 17, 9-((4-(Difluoromethoxy)phenyl)sulfonyl)-2-(oxetan-3-ylmethyl)-6-oxa-2,9-diazaspiro[4.5]decane]",0.25 to 4
18,"COc1cc(S(=O)(=O)N2CC3(CN(C4CCOCC4)C3)C2)n(C)n1 [Example 97, 2-((3-methoxy-1-methyl-1H-pyrazol-5-yl)sulfonyl)-6-(tetrahydro-2H-pyran-4-yl)-2,6-diazaspiro[3.3]heptane]",0.25 to 4

# Source: US20250171463A1 (BIOGEN MA INC., priority 2022, published 2025)
